Assay results published in paper PMC8808171, “Nonselective TRPC channel inhibition and suppression of aminoglycoside-induced premature termination codon readthrough by the small molecule AC1903” (The Journal of Biological Chemistry, 2022).
“Also recorded” adds a separate entry of the source.

Tests used:
[1] = test system: standard kinase panel; design: method as in PMID 29217578; settings: cited from earlier work
[2] = test system: TRPC4–C1; assay: [Ca2+]i recordings (Fura-2), concatemeric TRPC4–C1 in HEK T-REx cells; format: cell-based; settings: activator EA (30 nM)
Protocol: (§1) Based on the findings described above, we wondered whether AC1903—which is typically used as a TRPC5 inhibitor at concentrations of 30–100 μM in cellular assays ([29], [56])—might have limited selectivity for TRPC5 channels and whether its effect on intracellular G418 levels and PTC readthrough might be the consequence of inhibition of other or multiple targets. All well-characterized TRPC channel inhibitors reported to date modulate multiple TRP(C) channels ([34], [35], [36]). […] Because limited data for the selectivity of AC1903 are available in the public domain, we decided to profile AC1903 against a selection of calcium-permeable cation channels by intracellular calcium ([Ca^2+]i) recordings using well-characterized cell lines and TRP channel activators ([46], [57], [58]), and the Ca^2+ indicator Fura-2. In these assays, cells (HEK 293, HEK T-REx, or CHO) overexpressing the relevant ion channel protein and loaded with Fura-2 AM (a cell-permeable precursor of Fura-2) were preincubated with various concentrations of AC1903 or vehicle (DMSO) for 30 min. Then, changes in ratiometric fluorescence (from background) were recorded upon addition of the respective ion channel activator.
(§2) HEK T-REx cells expressing tetracycline-inducible TRPC4, TRPC5, TRPC5–C1,TRPC4–C1, and hPiezo1 have been described previously ([46], [57], [59], [78]). […]

[3] = biological target: T1, hPiezo1 (Homo sapiens, UniProt Q92508); assay: [Ca2+]i recordings (Fura-2), Piezo1 in HEK T-REx cells; format: cell-based
T1 construct: expressed in transfected cells; host or cells: HEK T-REx (tetracycline-induced)
T1 sequence (Q92508 whole entry): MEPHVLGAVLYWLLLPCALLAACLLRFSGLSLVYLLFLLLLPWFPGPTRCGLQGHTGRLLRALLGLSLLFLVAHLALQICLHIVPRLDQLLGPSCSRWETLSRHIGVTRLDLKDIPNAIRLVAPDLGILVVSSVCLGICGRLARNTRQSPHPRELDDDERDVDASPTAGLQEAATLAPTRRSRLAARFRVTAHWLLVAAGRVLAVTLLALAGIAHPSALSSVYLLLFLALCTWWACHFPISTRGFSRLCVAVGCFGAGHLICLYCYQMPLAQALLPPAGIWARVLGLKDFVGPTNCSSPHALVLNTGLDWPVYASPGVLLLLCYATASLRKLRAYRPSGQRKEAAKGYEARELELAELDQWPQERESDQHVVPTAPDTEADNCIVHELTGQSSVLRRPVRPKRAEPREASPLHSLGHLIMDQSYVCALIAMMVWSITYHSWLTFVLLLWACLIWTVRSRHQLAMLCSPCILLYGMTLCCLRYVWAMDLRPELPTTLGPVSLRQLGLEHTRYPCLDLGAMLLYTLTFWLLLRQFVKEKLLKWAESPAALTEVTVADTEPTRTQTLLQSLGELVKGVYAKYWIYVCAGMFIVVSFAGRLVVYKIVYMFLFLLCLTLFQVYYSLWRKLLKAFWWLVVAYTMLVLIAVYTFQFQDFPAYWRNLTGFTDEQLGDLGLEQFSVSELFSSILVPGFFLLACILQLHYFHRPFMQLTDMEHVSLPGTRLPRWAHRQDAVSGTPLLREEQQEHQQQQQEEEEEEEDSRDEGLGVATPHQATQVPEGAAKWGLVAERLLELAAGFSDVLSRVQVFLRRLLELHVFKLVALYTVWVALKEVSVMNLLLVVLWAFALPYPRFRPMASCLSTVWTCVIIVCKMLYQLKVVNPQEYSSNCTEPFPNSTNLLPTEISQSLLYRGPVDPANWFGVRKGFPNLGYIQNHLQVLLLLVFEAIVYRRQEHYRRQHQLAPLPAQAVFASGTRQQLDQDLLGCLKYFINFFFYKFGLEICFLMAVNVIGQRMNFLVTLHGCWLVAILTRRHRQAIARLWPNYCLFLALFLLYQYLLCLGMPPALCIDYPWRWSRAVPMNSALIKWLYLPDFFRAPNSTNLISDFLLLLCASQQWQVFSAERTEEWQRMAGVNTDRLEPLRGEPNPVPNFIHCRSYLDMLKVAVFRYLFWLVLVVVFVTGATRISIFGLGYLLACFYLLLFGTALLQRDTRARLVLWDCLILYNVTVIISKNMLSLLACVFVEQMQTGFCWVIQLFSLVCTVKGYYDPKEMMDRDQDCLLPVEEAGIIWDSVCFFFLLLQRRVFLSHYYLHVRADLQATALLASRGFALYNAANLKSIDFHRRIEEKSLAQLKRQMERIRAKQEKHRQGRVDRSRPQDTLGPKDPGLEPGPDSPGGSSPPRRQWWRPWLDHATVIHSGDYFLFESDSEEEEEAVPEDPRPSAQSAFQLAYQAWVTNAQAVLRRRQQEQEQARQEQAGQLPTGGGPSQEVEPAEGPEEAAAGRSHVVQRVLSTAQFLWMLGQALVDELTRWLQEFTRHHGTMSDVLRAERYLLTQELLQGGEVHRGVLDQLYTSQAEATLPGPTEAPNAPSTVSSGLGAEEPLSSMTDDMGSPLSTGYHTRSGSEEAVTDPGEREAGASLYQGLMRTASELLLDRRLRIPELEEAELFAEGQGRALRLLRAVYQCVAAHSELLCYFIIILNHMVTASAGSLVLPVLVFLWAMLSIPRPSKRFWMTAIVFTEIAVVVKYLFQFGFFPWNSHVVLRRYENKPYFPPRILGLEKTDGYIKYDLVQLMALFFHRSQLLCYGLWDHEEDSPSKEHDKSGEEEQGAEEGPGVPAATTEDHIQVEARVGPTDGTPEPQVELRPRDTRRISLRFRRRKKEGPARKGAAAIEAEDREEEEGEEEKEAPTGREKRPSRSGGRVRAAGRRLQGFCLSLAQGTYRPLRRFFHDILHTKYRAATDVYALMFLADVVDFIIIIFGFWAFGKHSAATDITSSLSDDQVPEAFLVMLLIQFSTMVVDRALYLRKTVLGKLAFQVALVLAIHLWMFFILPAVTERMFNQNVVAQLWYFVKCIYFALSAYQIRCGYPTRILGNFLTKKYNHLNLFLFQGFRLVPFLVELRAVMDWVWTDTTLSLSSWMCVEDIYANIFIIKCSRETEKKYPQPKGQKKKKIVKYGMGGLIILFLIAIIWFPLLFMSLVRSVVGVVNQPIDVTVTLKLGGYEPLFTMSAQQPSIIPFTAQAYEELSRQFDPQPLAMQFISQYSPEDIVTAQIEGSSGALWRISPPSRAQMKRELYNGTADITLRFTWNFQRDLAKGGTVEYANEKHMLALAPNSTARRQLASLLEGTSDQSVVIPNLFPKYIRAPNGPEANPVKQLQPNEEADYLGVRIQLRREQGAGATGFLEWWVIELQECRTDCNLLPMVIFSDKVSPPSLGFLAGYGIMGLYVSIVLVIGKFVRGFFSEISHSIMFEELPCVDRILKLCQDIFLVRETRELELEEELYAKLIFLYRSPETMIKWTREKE
Protocol: as §1, §2

IC50 [2]: 3000 nM | IC50 ([3]; HEK T-REx, activator Yoda1 (3 μM)): > 100 µM
Compound: c1ccc(Cn2c(NCc3ccco3)nc3ccccc32)cc1 [AC1903]
off-target effects in a standard kinase panel [1]: no off-target effects were found | inhibition of Yoda1-activated Piezo1 channels ([3]; AC1903 up to 30 μM): does not affect; also recorded: did not inhibit
